The values that follow are results of earlier work, collected in patent publication US9442092B2, “Methods for treatment of autism” (priority 2011, dated 2016).

For data set [1] the following is noted: in vivo.

As to `COc1cc2c(c3oc(=O)c4c(c13)CCC4=O)[C@@H]1C=CO[C@@H]1O2` [Aflatoxin], in the data set with HIV, the “Increase of HIV levels” value is reported as 500%.

Consider `CN1C(=O)[C@]23CC4=CC=C[C@H](O)[C@H]4N2C(=O)[C@@]1(CO)SS3` [gliotoxin, Gliotoxin], for which the “Increase of HIV levels” value with HIV is listed as 500%.

Turning to `CC(C)Cc1ccc(C(C)C(=O)O)cc1` (stereo not drawn) [Ibuprofen], in data set [1], the “Association with Autism” value is recorded as “no association”.
